pEC50: −log10 of the molar value.
Key:
[1] = test system: full-thickness flank skin from the fetal rats; assay: Transepidermal water loss (TEWL) of fetal rat skin explants in organ culture (barrier function); format: cell-based, Sprague-Dawley rats; details: for pEC50: Rattus norvegicus, read-out: concentration of half-maximal effect on barrier development (TEWL); for pEC50 / concentration of maximal effect on barrier development (TEWL): dose response, FIGS. 4a-4c; for effect on TEWL / barrier function: 50 μM
Procedure: Timed pregnant Sprague-Dawley rats (plug date=day 0) were obtained from Simonsen (Gilroy, Calif., USA) and fetuses were delivered prematurely on day 17. Transepidermal water loss (TEWL) was measured in excised full-thickness flank skin from the fetal rats after various times in culture. The skin explants were placed dermis-side down onto collagen membrane inserts (3μ pore size) in medium M-199 (serum-free), and submerged, and the lateral edges and dermal surface were sealed with petrolatum, such that water loss occurred only through the epidermal surface. Explant samples were weighed hourly, at ambient temperature (24±3° C.) and humidity (40±5%), over 6 hours using a Cahn balance (sensitivity 0.001 mg). TEWL levels are reported as milligrams of water lost per square millimeter of epidermal surface per hour. Fatty acids and clofibrate (p-chlorophenoxyisobutyric acid) were added to the medium bound to 0.5% (weight/volume) bovine serum albumin (BSA). Isoprenoids and oxysterols were added in ethanol (≦0.1%) and juvenile hormone III was added as a dimethylsulfoxide (DMSO) solution (≦0.1%). Control explants were incubated in the presence of the appropriate vehicle (≦0.1% DMSO or ethanol, and/or ≦0.5% BSA). Skin explants from gestational day 17 rats were incubated in the presence of either various activators or vehicle, and transepidermal water loss was measured after two days. The activators and the concentrations at which they were used were as follows: […]

[2] = test system: Skin explants from gestational day 17 rats; assay: Light and electron microscopy of fetal rat skin explants (epidermal maturation); format: cell-based; details: 48 hours
Procedure: Samples for light microscopy were fixed in modified Karnovsky's solution, plastic-embedded, and 0.5 μm sections were stained with toluidine. Samples for electron microscopy were minced into 1 mm^3 pieces, fixed in modified Karnovsky's fixative, and processed. Sections were stained with uranyl acetate and lead citrate, post-fixed in ruthenium tetroxide, and examined using a Zeiss 10A electron microscope.
Explants incubated in various media woe examined by light microscopy. The incubation di included control medium (containing no activators) and various media individually containing 300 μM clofibrate, 100 μM juvenile hormone III, 300 μM oleic acid, 30 μM linoleic acid, 50 μM farnesol, and various concentrations of 9-cis-retinoic acid, all-trans-retinoic acid, and 1,25-dihydroxy vitamin D3.
Observations were then made of the ultrastructural maturation of the outer epidermis in explants that had been incubated in the various media and then post-fixed in ruthenium tetroxide. Media identical to those of the preceding paragraph were used, excluding the retinoic acid-containing and 1,25-dihydroxy vitamin D3-containing media.

involucrin mRNA = assay: Involucrin mRNA in keratinocytes by Northern Blot; format: cell-based, Human; details: low calcium (0.03 mM), 24 hours, 10 μM
Procedure: (§1) Human keratinocyte cells were incubated in culture containing calcium at a concentration of 0.03 mM Ca^++ (a level that is too low to induce differentiation). Also included in the culture medium were clofibrate at 400 μM or ETYA at 10 μM and 20 μM, while separate cell cultures were maintained as controls with neither clofibrate nor ETYA. The production of mRNA for both involucrin and transglutaminase was measured at intervals over a 48-hour time period (0, 6, 12, 24, and 48 hours) by Northern Blot analysis. In each case, the lighter bars represent the control cells and the darker bars the cells incubated in the clofibrate-containing medium. The degree of mRNA generated is expressed as a percent of the control at zero hours.
(§2) Human epidermis was isolated from newborn foreskins and keratinocytes were plated in serum-free keratinocyte growth medium (“KGM”; Clonetics, San Diego, Calif. USA), using conventional techniques. Cells were treated with either the test compounds in vehicle or vehicle alone (<0.1% ethanol) for 24 or 48 hours. The test compounds were obtained from Sigma Chemical Co. (St. Louis. Mo. USA) and were stored as 15 mM stock solutions at −20° C. Mevalonate was solubilized in sterile water.
(§3) Total RNA was isolated by using TRIZOL (Sigma Chemical Co.), following the manufacturer's protocol. Ethanol-precipitate RNA pellets were suspended in sterile, diethylpyrocarbonate (DEPC)-treated water, and RNA was quantified by absorbance at 260 nm using the 260/280 nm ratio as an index of purity. RNA (15 μg per sample) was size fractionated through a 1% agarose gel containing 2.2 M formaldehyde. RNA integrity was visualized following acridine orange staining of the gel following electrophoresis. The RNA was transfered to a nylon membrane that was subsequently baked at 80° C. for 2 hours. Blots were hybridized with the appropriate ^32p-labeled probe overnight at 65° C. Washes were then performed in a solution containing 0.1% SSC and 0.1% sodium dedecyl sulfate (SDS) for 20 minutes at room temperature, followed by a 20-minute wash at 65° C. Autoradiography was performed at −70° C. Blots were probed with β-actin to confirm equal loading. Appropriate bands were quantified by densitometry.
(§4) Northern blot analyses were performed on keratinocytes maintained in low calcium (0.03 mM) and incubated for 24 hours in the presence of vehicle alone (<0.1% ethanol) or vehicle containing 25-hydroxycholesterol (10 μM), 22(R)-hydroxycholesterol (10 μM) cholesterol (10 μM), or mevalonate (500 μM) (individually). The mRNA levels of involucrin (“INV”) and transglutaminase (“TG'ase”) are shown in the bar graph of FIG. 14a, the INV indicated by clear bars and the TG'ase by shaded bars, both with error limits shown.

transglutaminase mRNA = assay: Transglutaminase mRNA in keratinocytes by Northern Blot; format: cell-based, Human; details: low calcium (0.03 mM), 24 hours, 10 μM
Procedure: as §1, §2, §3, §4

CCCCCCCC/C=C\CCCCCCCC(=O)O [oleic acid]
pEC50 [1]: ~3.60
concentration of maximal effect on barrier development (TEWL) [1]: approximately 500 μM
light microscopy of the epidermis ([2]; 300 μM): had both a multi-layered stratum granulosum and a stratum corneum

CC(C)=CCC/C(C)=C\CC/C(C)=C\CO [cis-farnesol]
effect on TEWL / barrier function ([1]; two days): neither mevalonate at 200 μM, 25-hydroxy cholesterol at 50 μM), squalene at 50 μM, geranylgeraniol at 50 μM, cis-farnesol at 50 μM, nor nerolidol at 100 μM significantly affected barrier function

CC(C)=CCC/C(C)=C/CC/C(C)=C/CC/C(C)=C/CO [geranylgeraniol]
effect on TEWL / barrier function ([1]; two days): neither mevalonate at 200 μM, 25-hydroxy cholesterol at 50 μM), squalene at 50 μM, geranylgeraniol at 50 μM, cis-farnesol at 50 μM, nor nerolidol at 100 μM significantly affected barrier function

CC(C)=CCC/C(C)=C/CC/C(C)=C/CC/C=C(\C)CC/C=C(\C)CCC=C(C)C [squalene]
effect on TEWL / barrier function ([1]; two days): neither mevalonate at 200 μM, 25-hydroxy cholesterol at 50 μM), squalene at 50 μM, geranylgeraniol at 50 μM, cis-farnesol at 50 μM, nor nerolidol at 100 μM significantly affected barrier function

CCCCC[C@H](O)/C=C/[C@H]1C(=O)C=C[C@@H]1C/C=C\CCCC(=O)O [prostaglandin J2]
effect on TEWL / barrier development ([1]; 10 μM, two days): had no effect

CCCCC/C=C\C/C=C\CCCCCCCC(=O)O [linoleic acid]
pEC50 [1]: ~4.90
concentration of maximal effect on barrier development (TEWL) [1]: approximately 30 μM
effect on TEWL ([1]; explants incubated in 300 μM for two days, p<0.005, n=8): markedly decreased the TEWL
light microscopy of the epidermis ([2]; 30 μM): had both a multi-layered stratum granulosum and a stratum corneum

CC(C)CC[C@H](O)[C@@H](C)[C@H]1CC[C@H]2[C@@H]3CC=C4C[C@@H](O)CC[C@]4(C)[C@H]3CC[C@]12C [22(S)-hydroxycholesterol]
involucrin (INV) mRNA level compared to the vehicle alone (involucrin mRNA): No effect
transglutaminase (TG'ase) mRNA level compared to the vehicle alone (transglutaminase mRNA): No effect

C=CC(C)(O)CCC=C(C)CCC=C(C)C (centres unmarked) [nerolidol]
effect on TEWL / barrier formation ([1]; 100 μM, two days): neither mevalonate at 200 μM, 25-hydroxy cholesterol at 50 μM), squalene at 50 μM, geranylgeraniol at 50 μM, cis-farnesol at 50 μM, nor nerolidol at 100 μM significantly affected barrier function
